Patent publication US12569512B2, “Heparan sulfate (HS) oligosaccharides effect in liver ischemia reperfusion injury” (The University of North Carolina at Chapel Hill, priority 2019, dated 2026)

Tests used:
HMGB1 = target: T1, HMGB1 (Mus musculus, UniProt P63158); experiment: Affinity purification (pulldown) of HMGB1 from liver lysate with biotinylated oligosaccharides, Western analysis; format: binding; conditions: biotinylated oligosaccharide 0.1 mM, Western blot
T1 construct: used to pull down endogenous HMGB1 from liver lysate; from tissue; host or cells: liver lysate
T1 sequence (P63158 1-215): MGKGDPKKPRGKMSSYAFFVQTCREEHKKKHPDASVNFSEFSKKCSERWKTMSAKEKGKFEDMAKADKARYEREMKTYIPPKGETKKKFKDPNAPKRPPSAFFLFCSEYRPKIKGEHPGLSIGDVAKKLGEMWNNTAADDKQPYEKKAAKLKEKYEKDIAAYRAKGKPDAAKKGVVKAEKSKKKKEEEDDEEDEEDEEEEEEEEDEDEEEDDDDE
Description: The oligosaccharides were converted to biotinylated versions using the same method as described in PCT International Patent Application Serial No. PCT/US2018/059152. Briefly, 12-mers and 6-mer-AXa with a pNP tag (5-10 mg) and 0.5 mg Pd/C were dissolved in 20 mM NaOAc, pH 5.0 in a total volume of 4 ml. Reaction mixture was vacuumed and refilled with H2 three times. The reaction was then incubated at room temperature for 4 h. After that, it was filtered to remove charcoal. The filtered solution was adjusted to pH 8.5 using 500 mM Na2HPO4. Succinimidyl 6-azidohexanoate (20 molar equivalent of starting oligosaccharides) was added and incubated at 37° C. overnight. Reaction was purified by DEAE-HPLC column to generate azido tagged oligosaccharides. PBS (pH7.4) buffer was bubbled with N2 for 5 min to prepare the sample solution of 0.1 M CuSO4, 0.1 M Tris(3-hydroxypropyl-triazolylmethyl)amine (THPTA)(Sigma), 0.15 M sodium ascorbate, 0.01 M azido tagged oligosaccharides and 0.02 M biotin-PEG4-alkyne (Sigma). The mixture of […] and 80 μl CuSO4 was vortexed, then 160 μl sodium ascorbate, 200 μl azido tagged oligomers and 200 μl biotin-PEG4-alkyne was added and bubbled with N2 for 2 min, then incubated at 37° C. overnight. The reaction was purified by DEAE-HPLC column to generate biotinylated products. The biotinylated 12-mers and 6-mer-AXa products were confirmed by ESI-MS.
Briefly, liver lysate was prepared by snap freezing tissue in liquid nitrogen at the time of sacrifice. The tissue was mechanically homogenized in buffer containing 200 mM MES, 500 mM phosphate, and 1 mM EDTA at pH 6 followed by three rounds of freeze thawing. The lysed sample were centrifuged at 10,000× g for 15 min at 4° C. Biotinylated HS oligosaccharides (final concentration 0.1 mM) were mixed with 20 μl of fresh liver lysate (˜0.6 mg) in 100 mM NaCl 20 mM HEPES pH 7.2 and incubated overnight at 4° C. The purification and biotinylated HS bound complex where achieved using avidin-Sepharose and increasing concentration of NaCl washes. […]

FXa (Homo sapiens) = tested on: T2, FXa (Homo sapiens); experiment: Ex vivo plasma FXa activity of mice after liver IR; format: in vivo, mouse; conditions: 1 mg/kg SC 30 min before ischemia; plasma after 6 h reperfusion; vs IR
T2 construct: purchased Enzyme Research Laboratories (FXa); Cutter Biologics (antithrombin)
T2 sequence (P01008 33-464): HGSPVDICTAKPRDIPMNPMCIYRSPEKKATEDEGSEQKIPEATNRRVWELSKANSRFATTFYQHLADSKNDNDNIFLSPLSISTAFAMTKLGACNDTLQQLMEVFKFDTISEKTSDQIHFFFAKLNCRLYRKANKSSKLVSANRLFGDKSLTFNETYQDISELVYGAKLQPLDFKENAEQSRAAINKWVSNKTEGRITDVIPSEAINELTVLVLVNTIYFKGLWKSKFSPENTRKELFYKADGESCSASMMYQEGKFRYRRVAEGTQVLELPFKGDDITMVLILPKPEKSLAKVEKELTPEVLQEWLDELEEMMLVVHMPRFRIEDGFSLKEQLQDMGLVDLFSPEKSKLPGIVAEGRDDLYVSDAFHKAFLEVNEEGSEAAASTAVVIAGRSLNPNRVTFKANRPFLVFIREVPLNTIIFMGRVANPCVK
Description: (§1) Assays were based on a previously published method. Briefly, human FXa (Enzyme Research Laboratories) was diluted to 50 U ml^−1 with PBS. The chromogenic substrate S-2765 (Diapharma) was diluted to 1 mg ml^−1 in water. For in vitro studies, fondaparinux (available under the trade name ARIXTRA) and 12-mer oligosaccharides were dissolved in PBS at various concentrations (0-131 nM). 16 μl of sample was incubated with 60 μl of […] antithrombin (Cutter Biologics) for 2 min at room temperature. Next, 100 μl of FXa was added and incubated for 4 min at room temperature. 30 μl of S-2765 substrate was added and the absorbance of the reaction mixture was measured at 405 nm continuously for 5 min. PBS serves as a control sample. The maximum slope for each sample was convert to percent FXa activity by dividing by the maximum slope for the control sample.
For ex vivo studies, mouse plasma collected after the 6 hour reperfusion period and assayed the same as described above.
Liver ischemia-reperfusion (IR) surgery was performed by the Animal Surgery Core Laboratory of the McAllister Heart Institute, University of North Carolina Chapel Hill, NC. The mouse experiments were approved by the UNC Animal Care and Use Committees and complied with National Institutes of Health guidelines. Male C57BL/6J mice, approximately 8 weeks old, were used in the IR surgeries. […]

[1] = tested on: liver IR injury mouse model; experiment: Liver ischemia-reperfusion (IR) injury mouse model: plasma markers and histology; format: in vivo; conditions: 6 h reperfusion, vs IR; for plasma ALT / hepatic necrotic area in ischemic lobe (H&E): 1 mg/kg SC 30 min before 60 min ischemia; for neutrophil infiltration into ischemic liver (immunohistochemistry): 1 mg/kg SC
Description: Liver ischemia-reperfusion (IR) surgery was performed by the Animal Surgery Core Laboratory of the McAllister Heart Institute, University of North Carolina Chapel Hill, NC. The mouse experiments were approved by the UNC Animal Care and Use Committees and complied with National Institutes of Health guidelines. Male C57BL/6J mice, approximately 8 weeks old, were used in the IR surgeries. Mice received a subcutaneous (SC) injection of 1 mg/kg oligosaccharide or the equivalent volume of saline 30 minutes prior to the surgical procedure. For the combination treatment of 12-mer-3+6-mer-AXa, equal concentration of each oligosaccharide was combined into a single solution. Under ketamine/xylazine anesthesia, an abdominal midline incision was made to expose the portal vein. A clamp was placed on the portal vein and bile duct to three major liver lobes to cause a 70% hepatic ischemia. Visible blanching of the ischemic liver lobes confirmed correct placement of the clamp. A temporary stitch closure of the muscle and skin over the clamp was used to prevent dehydration during the ischemia phase. Mice stayed on a heating pad and under anesthesia during the ischemia phase (60 minutes). The clamp was removed after 60 minutes and the ischemia liver lobes regained their red color as blood began to reperfusion the tissue, an indicator of correct reperfusion occurring. The incisions were closed in two layers with 5-0 silk sutures and the mice returned to their active state (no anesthesia used during the reperfusion phase). After 6 hours, the mice were re-anaesthetized, blood was drawn via cardiac puncture and ischemia liver lobes were harvested for histology (fixed in 10% formalin).
Plasma ALT was measured using the ALT Infinity reagent (Thermo Fisher) following the manufacturer's instructions. Plasma TNF-α was measured using Mouse TNF-α DuoSet Kit (R&D Systems) according to the manufacturer's instructions. Plasma HMGB1 levels were determined using HMGB1 ELISA Kit (Tecan US) according to the manufacturer's instructions. Plasma syndecan-1 levels were determined using Mouse Syndecan-1 ELISA (CellSciences) according to manufacturer's instructions. Plasms IL-6 levels were determined using Mouse IL-6 ELISA (R&D Systems).
Ischemia liver tissues were fixed in 10% neutral buffered formalin for 24 hours at room temperature, paraffin-embedded, and sectioned. Liver sections (4 μm) were stained with hematoxylin-eosin (H&E) or immunostained with monoclonal antibodies anti-neutrophil (Abcam, Ab 2557, NIMP-R14) followed by goat anti-rat or goat anti-rabbit biotinylated secondary antibodies (Abcam). Embedding, sectioning and H&E staining were performed at the Animal Histopathology and Laboratory Medicine Core Facility at UNC Chapel Hill. H&E analyses were performed by the Translational Pathology Laboratory Core Facility at UNC Chapel Hill using Aperio ImageScope Software (Leica Biosystems, Concord, Canada). IHC images were captured using an HD camera attached to a bright field microscope (Leica DM 1000 LED, Leica Microsystems Inc., IL, USA) and were processed using ImageJ. For neutrophil quantitation, five 100× images were randomly selected for each sample and the average neutrophils/field were reported.
1 mg/kg of 18-mer or equal volume of sterile saline was administered by subcutaneous injection 30 minutes prior to start of the ischemia phase. Ischemia to 70% of the liver was caused by clamping the portal vein and bile duct for 60 minutes. After the clamp was removed, the reperfusion phase last 6 hours before the animals were sacrificed for collection of liver tissue and blood. For surgical controls, a sham operation was performed such that the animal experienced the same anesthesia, abdominal midline incision, and suturing as the IR mice (FIG. 11A).

human FXa (Homo sapiens) [2] = tested on: T3, human FXa (Homo sapiens); conditions: as previously demonstrated [15]; cited from earlier work
T3 construct: purchased Enzyme Research Laboratories (FXa); Cutter Biologics (antithrombin)
T3 sequence (P01008 33-464): as above

human FXa (Homo sapiens) [3] = tested on: T3, human FXa (Homo sapiens); experiment: In vitro anti-FXa activity of oligosaccharides (chromogenic, with antithrombin); format: biochemical; conditions: for anti-FXa activity (anticoagulant activity): 0-131 nM
Description: as §1

MPO = MPO activity in ischemic liver lysate after liver IR; format: in vivo, mouse; conditions: 1 mg/kg SC, 6 h reperfusion
Description: Liver ischemia-reperfusion (IR) surgery was performed by the Animal Surgery Core Laboratory of the McAllister Heart Institute, University of North Carolina Chapel Hill, NC. The mouse experiments were approved by the UNC Animal Care and Use Committees and complied with National Institutes of Health guidelines. Male C57BL/6J mice, approximately 8 weeks old, were used in the IR surgeries. Mice received a subcutaneous (SC) injection of 1 mg/kg oligosaccharide or the equivalent volume of saline 30 minutes prior to the surgical procedure. For the combination treatment of 12-mer-3+6-mer-AXa, equal concentration of each oligosaccharide was combined into a single solution. Under ketamine/xylazine anesthesia, an abdominal midline incision was made to expose the portal vein. […]
Ischemia liver lobe was mechanically homogenized in 50 mM CTAB 50 mM potassium phosphate pH 6 at a ratio of 100 μl buffer per 10 mg tissue. […] Total protein concentration was measured by Bradford assay. 10 μl of liver lysate was incubated with 80 μl of 0.75 mM H2O2 and 110 μl of TMB (TMB liquid reagent, ready-to-use, Sigma) for 10 minutes at 37° C. with gentle agitation. The reaction was stopped by addition of 2.5 M H2SO4 and read at 450 nm. Activity (U/g protein) was calculated as absorbance of sample minus the absorbance of the blank divided by incubation time. […]

rat model = conditions: elevated doses; cited from earlier work
[4] = kidney IR model; cited from earlier work
liver IR injury in rats = conditions: cited from earlier work

GlcNS6S-GlcA-GlcNS6S3S-IdoA2S-GlcNS6S-GlcA-pNP [6-mer-AXa]
HMGB1 pulldown from liver lysate (HMGB1): does not pull down HMGB1 | plasma FXa activity (FXa (Homo sapiens)): Anticoagulant levels are similar between both treatment groups | plasma ALT [1]: no statistical difference in the concentration of ALT | anticoagulant activity through inhibition of FXa (human FXa (Homo sapiens) [2]): has anticoagulant activity through inhibition of FXa

GlcNS-GlcA-GlcNS-IdoA2S-GlcNS-IdoA2S-GlcNS-IdoA2S-GlcNS-IdoA2S-GlcNS-GlcA-pNP [12-mer-2]
anti-FXa activity (anticoagulant activity) (human FXa (Homo sapiens) [3]): did not display anti-FXa activity

GlcNS6S-GlcA-GlcNS6S3S-IdoA2S-GlcNS6S-IdoA2S-GlcNS6S-IdoA2S-GlcNS6S-IdoA2S-GlcNS6S-GlcA-pNP [12-mer-1]
IC50 (human FXa (Homo sapiens) [3]; with antithrombin, substrate S-2765): 63 nM | HMGB1 pulldown from liver lysate (HMGB1): successfully pull down HMGB1 | plasma FXa activity (FXa (Homo sapiens)): significantly decreased FXa activity | hepatic necrotic area in ischemic lobe (H&E) [1]: decreased hepatic necrosis | plasma ALT [1]: significantly decreased plasma ALT | neutrophil infiltration into ischemic liver (immunohistochemistry) [1]: decreased neutrophil infiltration | decrease of MPO activity compared to the IR group (MPO): 60% | toxicity (rat model): no toxicity | renal clearance [4]: renal clearance impairment of 12-mer-1 was demonstrated

GlcNS6S-GlcA-GlcNS6S-GlcA-GlcNS6S-GlcA-GlcNS6S-GlcA-GlcNS6S-GlcA-GlcNS6S-GlcA-pNP [12-mer-4]
anti-FXa activity (anticoagulant activity) (human FXa (Homo sapiens) [3]): did not display anti-FXa activity

CC(=N)N1CC[C@H](Oc2ccc([C@H](Cc3ccc4ccc(C(=N)N)cc4c3)C(=O)O)cc2)C1 [DX9065a]
liver IR injury (liver IR injury in rats): no protection

GlcNS6S-GlcA-GlcNS6S-IdoA2S-GlcNS6S-IdoA2S-GlcNS6S-IdoA2S-GlcNS6S-IdoA2S-GlcNS6S-GlcA-pNP [12-mer-3]
anti-FXa activity (anticoagulant activity) (human FXa (Homo sapiens) [3]): did not display anti-FXa activity | HMGB1 pulldown from liver lysate (HMGB1): successfully pull down HMGB1 | hepatic necrotic area in ischemic lobe (H&E) [1]: not 12-mer-3 decreased ALT and necrosis | plasma ALT [1]: not 12-mer-3 decreased ALT | neutrophil infiltration into ischemic liver (immunohistochemistry) [1]: did not | MPO activity (MPO): 96.00 U/g protein
